Test results taken from patent US9439424B2, “Synergistic weed control from applications of aminocyclopyrachlor and aminopyralid” (Dow AgroSciences LLC, priority 2012, dated 2016).
Several values for one entry are separate records, joined by “and”; a condition that tells them apart may be missing. Identical values can stand only once.

Tested on: kochia or mock cypress (Kochia scoparia, KCHSC)
Assay: Field trial, post-emergence foliar application, weed control rating 0-100%
Assay type: in vivo
Description: The (a) aminocyclopyrachlor or an agriculturally acceptable salt or ester thereof is mixed with or applied in combination with (b) aminopyralid or an agriculturally acceptable salt or ester thereof in an amount sufficient to induce a synergistic herbicidal effect. […] As described in the Herbicide Handbook of the Weed Science Society of America, Ninth Edition, 2007, p. 429, “‘synergism’ [is] an interaction of two or more factors such that the effect when combined is greater than the predicted effect based on the response to each factor applied separately.” Synergistic in the herbicide context can mean that the use of (a) and (b) as defined above results in an increased weed control effect compared to the weed control effects that are possible with the use of (a) or (b) alone. In some embodiments, the damage or injury to the undesired vegetation caused by the compositions and methods disclosed herein is evaluated using a scale from 0% to 100%, when compared with the untreated control vegetation, wherein 0% indicates no damage to the undesired vegetation and 100% indicates complete destruction of the undesired vegetation. […] 22 (1967)
In the Colby equation, the value E corresponds to the effect (plant damage or injury) that is to be expected if the activity of the individual compounds is additive. If the observed effect is higher than the value E calculated according to the Colby equation, then a synergistic effect is present according to the Colby equation.
Field trials were conducted with applications made to established grassland with naturally occurring weed populations. The target plants were treated with postemergence foliar applications when they were just emerged to the three-leaf stage and 0.6 centimeters (cm) (0.25 inches (in)) tall. All treatments were applied using a randomized complete block trial design, with 3 replications per treatment.
Treatments consisted of aminocyclopyrachlor in acid form and aminopyralid-triisopropanolammonium, each in water and applied alone or in combination. Spray solutions were prepared using an appropriate amount of dilution to form a 1.7 L aqueous spray solution with active ingredients in single and two way combinations. Formulated compounds were applied to the plant material with a backpack sprayer equipped with 8002 nozzles calibrated to deliver 13.5 gallon/acre (127 L/ha) at a spray height of 18-20 in (43-50 cm) above average plant canopy.
The treated plants were kochia or mock cypress (Kochia scoparia, KCHSC). The treated plots and control plots were rated blind at various intervals after application. Ratings were based on a scale of 0-100%, as discussed above, wherein 0% indicates no damage to the undesired vegetation and 100% indicates complete destruction of the undesired vegetation
Colby's equation was used to determine the herbicidal effects expected from the mixtures, as described above. The results were measured at 93 days and 183 days after the first application of the compositions. […] The herbicide tank mix combinations tested, application rates and ratios employed, plant species tested, and results are given below.

| Structure (SMILES) | Mean % weed control (aminocyclopyrachlor alone 140 g ae/ha, 93 days after application) | Mean % weed control (aminocyclopyrachlor alone 140 g ae/ha, 183 days after application) | Mean % weed control (aminopyralid-triisopropanolammonium alone 70 g ae/ha, 93 days) | Mean % weed control (aminopyralid-triisopropanolammonium alone 70 g ae/ha, 183 days) | Mean % weed control (aminopyralid-triisopropanolammonium alone 120 g ae/ha, 93 days) | Mean % weed control (aminopyralid-triisopropanolammonium alone 120 g ae/ha, 183 days) |
| --- | --- | --- | --- | --- | --- | --- |
| Nc1nc(C2CC2)nc(C(=O)O)c1Cl [Aminocyclopyrachlor, 6-amino-5-chloro-2-cyclopropylpyrimidine-4-carboxylic acid] | 56.67% and 56.7% | 45% | – | – | – | – |
| Nc1cc(Cl)nc(C(=O)O)c1Cl [Aminopyralid-triisopropanolammonium, aminopyralid-triisopropanolammonium] | – | – | 30% | 16.67% | 20% | 13.3% |
